Results reported in US9776987B2, “Amide derivatives for GPR119 agonist” (CHONG KUN DANG PHARMACEUTICAL CORP., priority 2013, dated 2017).
In brackets after ≈: the same amount, converted by molar mass. Read-outs that look alike come from different tables or passages of the source.

How the values were obtained:
[1] = Solubility test of GPR 119 agonist compounds (Nephelostar); format: physicochemical; details: aqueous with cosolvent or surfactant or cyclodextrin, kinetic from dmso stock
Description: 1. Method of Solubility Test
Each test compounds were dissolved in 5% DMSO aqueous solution as a solvent at several concentrations. When a laser was irradiated to the solution, the particles, which are not dissolved in the solvent, scatter the light. The level of the scattered light is dependent to the number of the particles, so the solubility of the test compound in the solution can be determined using the relationship. As the test equipment, Nephelostar was used.

human GPR119 receptor = molecular target: T1, human GPR119 receptor (Homo sapiens, UniProt Q8TDV5); experiment: Activity test for human GPR119 receptor (GeneBLAzer T-Rex GPR 119 CHO-K1 DA cells); format: cell-based; details: for EC50: human GPR119 receptor expressing CHO-K1 cells, 5 hours treatment, read-out: hGPR119 EC50; for activity for human GPR119 receptor (in words): judgement on the EC50 values of Table 11
T1 construct: host or cells: GeneBLAzer T-Rex GPR 119 CHO-K1 DA cells (CHO-K1)
T1 sequence (Q8TDV5 1-335): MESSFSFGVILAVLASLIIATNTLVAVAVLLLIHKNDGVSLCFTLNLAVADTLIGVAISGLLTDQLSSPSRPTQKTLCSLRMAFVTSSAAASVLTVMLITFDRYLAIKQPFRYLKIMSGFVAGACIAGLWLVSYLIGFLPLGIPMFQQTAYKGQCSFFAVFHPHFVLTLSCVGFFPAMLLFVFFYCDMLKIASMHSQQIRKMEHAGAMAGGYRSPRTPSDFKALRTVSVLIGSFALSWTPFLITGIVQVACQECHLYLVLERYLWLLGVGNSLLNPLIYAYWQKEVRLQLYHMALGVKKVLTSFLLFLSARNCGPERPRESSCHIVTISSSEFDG
Description: 1. Human GPR119 Receptor Cell
As a human GPR119 receptor expression cell for this test, the cell line “GeneBLAzer™ T-Rex GPR 119 CHO-K1 DA cells” that is commercially available from Invitrogen, was used. The cell was incubated in the DMEM media containing 1% dialyzed fetal bovine serum etc. The cell incubator was kept at constant temperature and constant humidity of 37° C., 5% CO2.
2. Activity Test for Human GPR119 Receptor
The human GPR119 receptor expressing cell was used to this test. Each of test compounds was added to be final concentrations of 0.1, 1, 10 μM in 96 well and tested in duplicate. A fixed amount of cell was added to each well of 96 well separately, and then treated with the test compound for 5 hours. After treatment of color development agent for 2 hours, the fluorescence value was determined with plate reader. To the luminous wavelength of control well, which was not treated with the sample, but in which only a vehicle […] was contained, the ratio of the luminous wavelength of test well, which was treated with the sample, was calculated, and then converted to obtain EC50 value.
3. Statistical Processing
All the results were expressed as mean±SD, and each test groups and the control group were compared using student's t-test to adjudge the effects of each test groups.

Male C57/6J Jms mice = experiment: Glucose tolerance test in normal mouse; format: in vivo; details: 10 mg/kg, whole blood glucose AUC after oral glucose 2 g/kg
Description: 1. Method of Glucose Tolerance Test
Male C57/6J Jms mice of 6-7 weeks of age were fasted for 16 hours before the start of glucose tolerance test. […]
Before compound administration, that is, at 0 hour, whole blood glucose level was determined using a Glucometer (ACCU-CHEK, Roche). At 30 minutes after compound administration, whole blood glucose level was determined once again, and 20% glucose (2 g/kg/10 mL) was administered orally. Whole blood glucose level was determined at 20, 40, 60, 80, and 120 minutes after 20% glucose administration. Whole blood glucose level vs. Time was graphicalized. Area under the curve (AUC) of whole blood glucose level was obtained using GraphPad Prism 4.0. The effect of glucose tolerance was adjudged with the corrected area under the curve (cAUC), on which the base value of glucose area under the curve was excluded.

[2] = pH 2, 5% DMSO aqueous solution, read-out: Solubility pH 2
[3] = pH 4, 5% DMSO aqueous solution, read-out: Solubility pH 4
[4] = pH 6, 5% DMSO aqueous solution, read-out: Solubility pH 6
[5] = pH 8, 5% DMSO aqueous solution, read-out: Solubility pH 8

SMILES | solubility [1, 2] | solubility [1, 3] | solubility [1, 4] | solubility [1, 5] | EC50 (human GPR119 receptor) | activity for human GPR119 receptor (in words) (human GPR119 receptor) | Decrease % of AUC at 10 mg/kg (Male C57/6J Jms mice)
CC(C)(CN1CCC(COc2ccc(-c3ccc(C(=O)N4C[C@H](O)C[C@@]4(C)C(N)=O)c(F)c3)nc2)CC1)C(F)(F)F [Compound 1294, (2S,4R)-1-(2-fluoro-4-(5-((1-(3,3,3-trifluoro-2,2-dimethylpropyl)piperidin-4-yl)methoxy)pyridin-2-yl)benzoyl)-4-hydroxy-2-methylpyrrolidin-2-carboxamide] | > 290 µg/mL | > 290 µg/mL | 203 µg/mL (≈ 350 µM) | 52 µg/mL (≈ 89.6 µM) | 19 nM | excellent activity | 
C[C@@]1(C(N)=O)C[C@@H](O)CN1C(=O)c1ccc(-c2ccc(OCC3CCN(CC4(C(F)(F)F)CCC4)CC3)cn2)c(F)c1 [Compound 1329, (2S,4R)-1-(3-fluoro-4-(5-((1-((1-(trifluoromethyl)cyclobutyl)methyl)piperidin-4-yl)methoxy)pyridin-2-yl)benzoyl)-4-hydroxy-2-methylpyrrolidin-2-carboxamide] | > 296 µg/mL | > 296 µg/mL | > 296 µg/mL | 112 µg/mL (≈ 189 µM) | 10 nM | excellent activity | 
CCC(F)(CC)CN1CCC(COc2ccc(-c3ccc(C(=O)N4C[C@H](O)C[C@@]4(C)C(N)=O)cc3F)nc2)CC1 [Compound 1292, (2S,4R)-1-(4-(5-((1-(2-ethyl-2-fluorobutyl)piperidin-4-yl)methoxy)pyridin-2-yl)-3-fluorobenzoyl)-4-hydroxy-2-methylpyrrolidin-2-carboxamide] | > 279 µg/mL | > 279 µg/mL | > 279 µg/mL | > 279 µg/mL | 12 nM |  | 
CC(C)c1noc(N2CCC(COc3ccc(-c4ccc(S(C)(=O)=O)cc4)nc3)CC2)n1 [GSK-1292263, reference compound] |  |  |  |  |  |  | 10~20%
CC(C)(CN1CCC(COc2ccc(-c3ccc(C(=O)N4C[C@H](O)C[C@H]4C(N)=O)cc3)nc2)CC1)C(F)(F)F [Compound 1322, (2S,4R)-4-hydroxy-1-(4-(5-((1-(3,3,3-trifluoro-2,2-dimethylpropyl)piperidin-4-yl)methoxy)pyridin-2-yl)benzoyl)pyrrolidin-2-carboxamide] | > 274 µg/mL | > 274 µg/mL | > 274 µg/mL | 89 µg/mL (≈ 162 µM) | 6 nM | excellent activity | 
C[C@@]1(C(N)=O)C[C@@H](O)CN1C(=O)c1ccc(-c2ccc(OCC3CCN(CC4(C(F)(F)F)CCC4)CC3)cn2)cc1F [Compound 1290, (2S,4R)-1-(2-fluoro-4-(5-((1-((1-(trifluoromethyl)cyclobutyl)methyl)piperidin-4-yl)methoxy)pyridin-2-yl)benzoyl)-4-hydroxy-2-methylpyrrolidin-2-carboxamide] | > 296 µg/mL | > 296 µg/mL | > 296 µg/mL | 102 µg/mL (≈ 172 µM) | 6 nM | excellent activity | 
C[C@@]1(C(N)=O)C[C@@H](O)CN1C(=O)c1ccc(-c2ccc(OCC3CCN(CC4(C(F)(F)F)CCC4)CC3)nc2)c(F)c1 [Compound 1325, (2S,4R)-1-(3-fluoro-4-(6-((1-((1-(trifluoromethyl)cyclobutyl)methyl)piperidin-4-yl)methoxy)pyridin-3-yl)benzoyl)-4-hydroxy-2-methylpyrrolidin-2-carboxamide] | > 296 µg/mL | > 296 µg/mL | > 296 µg/mL | 114 µg/mL (≈ 192 µM) | 14 nM | excellent activity | 
CCC(F)(CC)CN1CCC(COc2cnc(-c3ccc(C(=O)N4C[C@H](O)C[C@H]4C(N)=O)c(F)c3)nc2)CC1 [Compound 1257, (2S,4R)-1-(4-(5-((1-(2-ethyl-2-fluorobutyl)piperidin-4-yl)methoxy)pyrimidin-2-yl)-2-fluorobenzoyl)-4-hydroxypyrrolidin-2-carboxamide] |  |  |  |  | 10 nM |  | 
NC(=O)[C@@H]1C[C@@H](O)CN1C(=O)c1ccc(-c2ccc(OCC3CCN(CC4(C(F)(F)F)CCC4)CC3)cn2)cc1F [Compound 1280, (2S,4R)-1-(2-fluoro-4-(5-((1-((1-(trifluoromethyl)cyclobutyl)methyl)piperidin-4-yl)methoxy)pyridin-2-yl)benzoyl)-4-hydroxypyrrolidin-2-carboxamide] |  |  |  |  | 38 nM | excellent activity | 

More lines, main results first:

solubility [1, 2] | solubility [1, 3] | solubility [1, 4] | solubility [1, 5] | EC50 (human GPR119 receptor) | activity for human GPR119 receptor (in words) (human GPR119 receptor) | SMILES | Decrease % of AUC at 10 mg/kg (Male C57/6J Jms mice)
> 289 µg/mL | > 289 µg/mL | > 289 µg/mL | 108 µg/mL (≈ 187 µM) | 3 nM | excellent activity | NC(=O)[C@@H]1C[C@@H](O)CN1C(=O)c1ccc(-c2ccc(OCC3CCN(CC4(C(F)(F)F)CCC4)CC3)cn2)c(F)c1 [Compound 1286, (2S,4R)-1-(3-fluoro-4-(5-((1-((1-(trifluoromethyl)cyclobutyl)methyl)piperidin-4-yl)methoxy)pyridin-2-yl)benzoyl)-4-hydroxypyrrolidin-2-carboxamide] | 
> 271 µg/mL | > 271 µg/mL | 157 µg/mL (≈ 289 µM) | 55 µg/mL (≈ 101 µM) | 2 nM |  | CCC(F)(CC)CN1CCC(COc2ccc(-c3ccc(C(=O)N4C[C@H](O)C[C@H]4C(N)=O)cc3F)cc2)CC1 [Compound 1205] | 
> 283 µg/mL | > 283 µg/mL | > 283 µg/mL | 54 µg/mL (≈ 95.3 µM) | 0.07 nM | excellent activity | CC(C)(CN1CCC(COc2ccc(-c3ccc(C(=O)N4C[C@H](O)C[C@H]4C(N)=O)c(F)c3)nc2)CC1)C(F)(F)F [Compound 1268, (2S,4R)-1-(2-fluoro-4-(5-((1-(3,3,3-trifluoro-2,2-dimethylpropyl)piperidin-4-yl)methoxy)pyridin-2-yl)benzoyl)-4-hydroxypyrrolidin-2-carboxamide] | 
> 283 µg/mL | > 283 µg/mL | 355 µg/mL (≈ 627 µM) | 88 µg/mL (≈ 155 µM) | 4 nM | excellent activity | CC(C)(CN1CCC(COc2ccc(-c3ccc(C(=O)N4C[C@H](O)C[C@H]4C(N)=O)cc3F)nc2)CC1)C(F)(F)F [Compound 1323, (2S,4R)-1-(3-fluoro-4-(5-((1-(3,3,3-trifluoro-2,2-dimethylpropyl)piperidin-4-yl)methoxy)pyridin-2-yl)benzoyl)-4-hydroxypyrrolidin-2-carboxamide] | 
 |  |  |  | 0.04 nM | excellent activity | C[C@@]1(C(N)=O)CCCN1C(=O)c1ccc(-c2cnc(OCC3CCN(CC4(C(F)(F)F)CCC4)CC3)cn2)cc1F [Compound 1263, (S)-1-(2-fluoro-4-(5-((1-((1-(trifluoromethyl)cyclobutyl)methyl)piperidin-4-yl)methoxy)pyrazin-2-yl)benzoyl)-2-methylpyrrolidin-2-carboxamide] | 
 |  |  |  | 2 nM | excellent activity | NC(=O)[C@@H]1C[C@@H](O)CN1C(=O)c1ccc(-c2ccc(OCC3CCN(CC4(C(F)(F)F)CCC4)CC3)cc2)c(F)c1 [Compound 1255] | 
 |  |  |  | 0.08 nM |  | CCC(F)(CC)CN1CCC(COc2ccc(-c3ccc(C(=O)N4C[C@@H](F)C[C@H]4C(N)=O)c(F)c3)cc2)CC1 [Compound 1211, (2S,4S)-1-(4′-((1-(2-ethyl-2-fluorobutyl)piperidin-4-yl)methoxy)-3-fluorobiphenylcarbonyl)-4-fluoropyrrolidin-2-carboxamide] | 
